Our source for the Ki values is patent US20190085024A1, “Alpha-Ketoamide Inhibitors Of Cysteine Proteases” (Phelix Therapeutics, priority 2017, published 2019).

*1 amine or outer side, *2 acyl side, *3 side chain or, on linkers, in order; H or OH if unused. Where a SMILES comes first, the peptide text is derived from it. [ ]: non-standard residue; d: D form. 2Nal = N[CH](Cc1ccc2ccccc2c1)C(=O)O; X1 = CCC(C)C(N[*:1])C(=O)C(=O)[*:2]

Assay [1] addresses Cathepsin L (Homo sapiens, UniProt P07711). The assay is described as follows: Cathepsin L enzyme assay. It is filed as biochemical. The following applies: Ki by Morrison equation; pH 5.5, substrate Z-Phe-Arg-Amc; read-out: Cat L. From the text:
Two wells contained DMSO only for controls.
Velocity was converted to μM/sec.

The target in assay [2] is Calpain. The assay is described as follows: Calpain enzyme assay. The following applies: Ki by Morrison equation; pH 7.5, 5 mM CaCl2. The assay is classed as biochemical.

Cathepsin L, sequence (P07711 114-333, species assumed): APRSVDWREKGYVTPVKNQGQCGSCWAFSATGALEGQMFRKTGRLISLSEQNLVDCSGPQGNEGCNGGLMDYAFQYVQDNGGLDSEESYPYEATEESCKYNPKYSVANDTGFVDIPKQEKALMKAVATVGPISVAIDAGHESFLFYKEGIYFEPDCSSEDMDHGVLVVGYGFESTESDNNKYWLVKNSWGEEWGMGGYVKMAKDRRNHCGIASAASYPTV

Regarding `CCC(C)C(NC(=O)C(CC(C)C)NC(=O)Cc1ccccn1)C(=O)C(=O)NCC(=O)NC(Cc1ccc2ccccc2c1)C(N)=O` (stereo not drawn) [PHELIX324, N-(2-((1-amino-3-(naphthalen-2-yl)-1-oxopropan-2-yl)amino)-2-oxoethyl)-4-methyl-3-(4-methyl-2-(2-(pyridin-2-yl)acetamido)pentanamido)-2-oxohexanamide], the Ki in assay [1] came out at 0.00132 µM; in assay [2] it was 0.00815 µM.

With `CC[C@H](C)C(NC(=O)[C@H](CC#N)NC(=O)Cc1ccccc1)C(=O)C(=O)NCC(=O)N[C@@H](Cc1ccc2ccccc2c1)C(N)=O` (stereo partly drawn) [PHELIX337, N-(2-((1-amino-3-(naphthalen-2-yl)-1-oxopropan-2-yl)amino)-2-oxoethyl)-3-(3-cyano-2-(2-phenylacetamido)propanamido)-4-methyl-2-oxohexanamide], the figures for the Ki in assay [1] and in assay [2] were 0.00848 µM and 0.224 µM, respectively.

Take `CCC(C)C(NC(=O)C(CC(C)C)NC(=O)NCc1ccccc1)C(=O)C(=O)NCC(=O)NC(Cc1ccc2ccccc2c1)C(N)=O` (stereo not drawn) [PHELIX334, N-(2-((1-amino-3-(naphthalen-2-yl)-1-oxopropan-2-yl)amino)-2-oxoethyl)-3-(2-(3-benzylureido)-4-methylpentamido)-4-methyl-2-oxohexanamide]: the figures for the Ki in assay [1] and in assay [2] were 0.00043 µM and 0.00067 µM, respectively.

In turn, `CC(NC(=O)C(Cc1ccccc1)NC(=O)Cc1ccccc1)C(=O)C(=O)NC(Cc1ccccc1)C(=O)NC(Cc1ccc(-c2ccccc2)cc1)C(N)=O` (stereo not drawn) [PHELIX248, N-(1-((3-([1,1′-biphenyl]-4-yl)-1-amino-1-oxopropan-2-yl)amino)-1-oxo-3-phenylpropan-2-yl)-2-oxo-3-(3-phenyl-2-(2-phenylacetamido)propanamido)butanamide] registered a Ki in assay [2] of over 10 µM.

Regarding `CCC(C)C(C(=O)C(=O)NCC(=O)NC(Cc1ccc2ccccc2c1)C(N)=O)N(C)C(=O)C(CC(C)C)NC(=O)OCc1ccccc1` (stereo not drawn) [PHELIX306, benzyl (1-((1-((2-((1-amino-3-(naphthalen-2-yl)-1-oxopropan-2-yl)amino)-2-oxoethyl)amino)-4-methyl-1,2-dioxohexan-3-yl)(methyl)amino)-4-methyl-1-oxopentan-2-yl)carbamate], the Ki came out at 0.0776 µM in assay [1] and 0.447 µM in assay [2].

In the case of `CCC(C)C(NC(=O)C(CC(C)C)NC(=O)OCc1ccccc1)C(=O)C(=O)NC(Cc1ccncc1)C(N)=O` (stereo not drawn) [PHELIX342, benzyl (1-((1-((1-amino-1-oxo-3-(pyridin-4-yl)propan-2-yl)amino)-4-methyl-1,2-dioxohexan-3-yl)amino)-4-methyl-1-oxopentan-2-yl)carbamate], the Ki was 0.0313 µM in assay [1] and 0.0202 µM in assay [2].

Consider `CCC(C)C(NC(=O)C(CC(C)C)NC(=O)OCc1ccccc1)C(=O)C(=O)N1CC(C(=O)NCc2cncnc2)C1` (stereo not drawn) [PHELIX362, benzyl (4-methyl-1-((4-methyl-1,2-dioxo-1-(3-((pyrimidin-5-ylmethyl)carbamoyl)azetidin-1-yl)hexan-3-yl)amino)-1-oxopentan-2-yl)carbamate], for which the Ki in assay [1] worked out at 0.157 µM; in assay [2], 0.63 µM.

Consider `CCC(C)C(NC(=O)C(CC(C)C)NC(=O)Cc1cccnc1)C(=O)C(=O)NCC(=O)N(C)C(Cc1ccccc1)C(N)=O` (stereo not drawn) [PHELIX351, N-(2-((1-amino-1-oxo-3-phenylpropan-2-yl)(methyl)amino)-2-oxoethyl)-4-methyl-3-(4-methyl-2-(2-(pyridin-3-yl)acetamido)pentanamido)-2-oxohexanamide], for which the Ki in assay [1] worked out at 0.00045 µM; in assay [2], 0.0003 µM.

In the case of `CCC(C)C(NC(=O)C(CC(C)C)NC(=O)OCc1ccccc1)C(=O)C(=O)NC(CCCNC(N)=O)C(N)=O` (stereo not drawn) [PHELIX341, benzyl (1-((1-((1-amino-1-oxo-5-ureidopentan-2-yl)amino)-4-methyl-1,2-dioxohexan-3-yl)amino)-4-methyl-1-oxopentan-2-yl)carbamate], the values for the Ki in assay [1] and in assay [2] were 0.0279 µM and 0.0234 µM, respectively.

For `CCC(C)C(NC(=O)C(CC(C)(C)C)NC(=O)Cc1ccccc1)C(=O)C(=O)NCC(=O)NC(Cc1ccc2ccccc2c1)C(N)=O` (stereo not drawn) [PHELIX331, N-(2-((1-amino-3-(naphthalen-2-yl)-1-oxopropan-2-yl)amino)-2-oxoethyl)-3-(4,4-dimethyl-2-(2-phenylacetamido)pentanamido)-4-methyl-2-oxohexanamide], the Ki is 0.00167 µM in assay [1] and 0.00926 µM in assay [2].

For `CCC(C)C(NC(=O)C(=O)C(C)NC(=O)C(Cc1ccccc1)NC(=O)Cc1ccccc1)C(=O)NC1(C(=O)O)CCCC1` (stereo not drawn) [PHELIX217, 1-(3-methyl-2-(2-oxo-3-(3-phenyl-2-(2-phenylacetamido)propanamido)butanamido)pentanamido)cyclopentane-1-carboxylic acid], the results for the Ki in assay [1] and in assay [2] were 1080 µM and over 100 µM, respectively.

Consider `CCC(C)C(NC(=O)C(CC(C)C)NC(=O)C(Cc1ccccc1)NC(=O)Cc1ccncc1)C(=O)C(=O)NC(CCCNC(=N)N)C(N)=O` (stereo not drawn) [PHELIX346, N-(1-amino-5-guanidino-1-oxopentan-2-yl)-4-methyl-3-(4-methyl-2-(3-phenyl-2-(2-(pyridin-4-yl)acetamido)propanamido)pentanamido)-2-oxohexanamide], for which the Ki in assay [1] was 0.00328 µM; in assay [2], 0.00171 µM.

Consider `CCC(C)C(NC(=O)C(CC(C)C)NC(=O)OCc1ccccc1)C(=O)C(=O)N(C)CC(=O)NC(Cc1ccc2ccccc2c1)C(N)=O` (stereo not drawn) [PHELIX291, benzyl (1-((1-((2-((1-amino-3-(naphthalen-2-yl)-1-oxopropan-2-yl)amino)-2-oxoethyl)(methyl)amino)-4-methyl-1,2-dioxohexan-3-yl)amino)-4-methyl-1-oxopentan-2-yl)carbamate], for which the Ki in assay [1] was 5.91 µM; in assay [2] it was over 10 µM.

For the molecule `CCC(C)C(NC(=O)C(=O)CCNC(=O)Cc1ccccc1)C(=O)NC(C)(C)C(=O)O` (stereo not drawn) [PHELIX133, 2-methyl-2-(3-methyl-2-(2-oxo-4-(2-phenylacetamido)butanamido)pentanamido)propanoic acid], the Ki in assay [1] turned out to be 210 µM.

In the case of `CCC(C)C(NC(=O)C(CC(C)C)NC(=O)OCc1ccccc1)C(=O)C(=O)NCC(=O)NC(Cc1ccc2ccccc2c1)C(N)=O` (stereo not drawn) [PHELIX293, benzyl (1-((1-((2-((1-amino-3-(naphthalen-2-yl)-1-oxopropan-2-yl)amino)-2-oxoethyl)amino)-4-methyl-1,2-dioxohexan-3-yl)amino)-4-methyl-1-oxopentan-2-yl)carbamate], in assay [2], the Ki was 1.19 µM.

For the molecule `CCC(C)C(NC(=O)C(CC(C)C)NC(=O)OCc1ccccc1)C(=O)C(=O)NCC(=O)NC(Cc1ccc2ccccc2c1)C(N)=O` (stereo not drawn) [PHELIX257, benzyl (1-((1-((2-((1-amino-3-(naphthalen-2-yl)-1-oxopropan-2-yl)amino)-2-oxoethyl)amino)-4-methyl-1,2-dioxohexan-3-yl)amino)-4-methyl-1-oxopentan-2-yl)carbamate], the Ki in assay [2] amounted to 0.00092 µM.

For `CCC(C)C(NC(=O)CNC(=O)C(Cc1ccc2ccccc2c1)NC(C)=O)C(=O)C(=O)NC(CC(C)C)C(=O)NC(Cc1ccccc1)C(N)=O` (stereo not drawn) [PHELIX338, 3-(2-(2-acetamido-3-(naphthalen-2-yl)propanamido)acetamido)-N-(1-((1-amino-1-oxo-3-phenylpropan-2-yl)amino)-4-methyl-1-oxopentan-2-yl)-4-methyl-2-oxohexanamide] (Ac-[2Nal]G[X1]LF-NH2; configuration not given here), the Ki in assay [1] came out at 2.88 µM.

The molecule `CC(NC(=O)C(Cc1ccccc1)NC(=O)Cc1ccccc1)C(=O)C(=O)NC(Cc1ccccc1)C(=O)NC(Cc1ccc(-c2ccccc2)cc1)C(N)=O` (stereo not drawn) [PHELIX247, N-(1-((3-([1,1′-biphenyl]-4-yl)-1-amino-1-oxopropan-2-yl)amino)-1-oxo-3-phenylpropan-2-yl)-2-oxo-3-(3-phenyl-2-(2-phenylacetamido)propanamido)butanamide] had a Ki in assay [2] of over 10 µM.

In the case of `CCC(C)C(NC(=O)C(CC(C)C)NC(=O)OCc1ccccc1)C(=O)C(=O)N(C)C(Cc1ccccc1)C(N)=O` (stereo not drawn) [PHELIX358, benzyl (1-((1-((1-amino-1-oxo-3-phenylpropan-2-yl)(methyl)amino)-4-methyl-1,2-dioxohexan-3-yl)amino)-4-methyl-1-oxopentan-2-yl)carbamate], in assay [1], the Ki is over 1 µM.

`CCC(C)C(NC(=O)C(CC(C)C)NC(C)=O)C(=O)C(=O)NCC(=O)NC(Cc1ccc2ccccc2c1)C(N)=O` (stereo not drawn) [PHELIX307, 3-(2-acetamido-4-methylpentanamido)-N-(2-((1-amino-3-(naphthalen-2-yl)-1-oxopropan-2-yl)amino)-2-oxoethyl)-4-methyl-2-oxohexanamide] registered a Ki in assay [2] of 0.00261 µM.

For the molecule `CCC(C)C(NC(=O)C(=O)CCNC(=O)C(Cc1ccccc1)NC(=O)Cc1ccccc1)C(=O)NC(C)(C)C(=O)O` (stereo not drawn) [PHELIX218, 13-benzyl-5-(sec-butyl)-2,2-dimethyl-4,7,8,12,15-pentaoxo-16-phenyl-3,6,11,14-tetraazahexadecanoic acid], the Ki in assay [1] is over 1000 µM.

With `CC(NC(=O)C(Cc1ccccc1)NC(=O)Cc1ccccc1)C(=O)C(=O)NC(Cc1ccccc1)C(=O)NC(Cc1ccc(-c2ccccc2)cc1)C(N)=O` (stereo not drawn) [PHELIX213, N-(1-((3-([1,1′-biphenyl]-4-yl)-1-amino-1-oxopropan-2-yl)amino)-1-oxo-3-phenylpropan-2-yl)-2-oxo-3-(3-phenyl-2-(2-phenylacetamido)propanamido)butanamide], the Ki in assay [2] is over 10 µM.

In assay [2], `CCC(C)C(NC(=O)C(CC(C)C)NC(C)=O)C(=O)C(=O)NCC(=O)NC(Cc1ccc2ccccc2c1)C(N)=O` (stereo not drawn) [PHELIX310] displayed a Ki of 0.0055 µM.

`CC(C)CC(NC(=O)C(Cc1ccccc1)NC(=O)OCc1ccccc1)C(=O)NC(Cc1ccccc1)C(=O)C(=O)NC(CCCNC(=N)N)C(N)=O` (stereo not drawn) [PHELIX339, benzyl (1-amino-10-benzyl-6-carbamoyl-1-imino-13-isobutyl-8,9,12,15-tetraoxo-17-phenyl-2,7,11,14-tetraazaheptadecan-16-yl)carbamate] showed a Ki in assay [2] of 0.00218 µM.
